Key:
[1] = molecular target: T1, uPA (Homo sapiens, UniProt P00749)
[2] = system: 85 serine hydrolases; conditions: 5 nM-33 μM
[3] = molecular target: T2, epithelial sodium channels (ENaCs) (Homo sapiens, UniProt P37088+P51168+P51170); conditions: compounds at 10 μM, n = 4
T2 sequence (P37088 1-669): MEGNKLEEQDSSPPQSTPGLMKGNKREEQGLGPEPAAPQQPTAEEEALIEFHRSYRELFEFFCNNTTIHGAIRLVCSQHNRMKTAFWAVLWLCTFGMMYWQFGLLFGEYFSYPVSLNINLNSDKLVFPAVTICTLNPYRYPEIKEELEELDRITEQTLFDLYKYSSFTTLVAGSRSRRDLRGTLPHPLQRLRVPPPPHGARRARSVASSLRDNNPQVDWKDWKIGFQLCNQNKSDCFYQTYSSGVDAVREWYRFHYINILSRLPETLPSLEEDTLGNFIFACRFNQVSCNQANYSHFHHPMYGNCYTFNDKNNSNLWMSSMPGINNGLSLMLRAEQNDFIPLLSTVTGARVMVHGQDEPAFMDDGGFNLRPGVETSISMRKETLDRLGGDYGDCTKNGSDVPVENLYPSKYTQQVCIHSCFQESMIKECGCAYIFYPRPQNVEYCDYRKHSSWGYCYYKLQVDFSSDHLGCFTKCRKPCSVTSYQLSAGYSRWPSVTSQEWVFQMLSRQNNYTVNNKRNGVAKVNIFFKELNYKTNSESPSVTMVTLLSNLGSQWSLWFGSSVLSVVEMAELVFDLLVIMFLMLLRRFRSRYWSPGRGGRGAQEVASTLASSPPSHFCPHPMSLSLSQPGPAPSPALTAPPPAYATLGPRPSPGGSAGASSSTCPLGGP
T2 sequence (P51168 1-640): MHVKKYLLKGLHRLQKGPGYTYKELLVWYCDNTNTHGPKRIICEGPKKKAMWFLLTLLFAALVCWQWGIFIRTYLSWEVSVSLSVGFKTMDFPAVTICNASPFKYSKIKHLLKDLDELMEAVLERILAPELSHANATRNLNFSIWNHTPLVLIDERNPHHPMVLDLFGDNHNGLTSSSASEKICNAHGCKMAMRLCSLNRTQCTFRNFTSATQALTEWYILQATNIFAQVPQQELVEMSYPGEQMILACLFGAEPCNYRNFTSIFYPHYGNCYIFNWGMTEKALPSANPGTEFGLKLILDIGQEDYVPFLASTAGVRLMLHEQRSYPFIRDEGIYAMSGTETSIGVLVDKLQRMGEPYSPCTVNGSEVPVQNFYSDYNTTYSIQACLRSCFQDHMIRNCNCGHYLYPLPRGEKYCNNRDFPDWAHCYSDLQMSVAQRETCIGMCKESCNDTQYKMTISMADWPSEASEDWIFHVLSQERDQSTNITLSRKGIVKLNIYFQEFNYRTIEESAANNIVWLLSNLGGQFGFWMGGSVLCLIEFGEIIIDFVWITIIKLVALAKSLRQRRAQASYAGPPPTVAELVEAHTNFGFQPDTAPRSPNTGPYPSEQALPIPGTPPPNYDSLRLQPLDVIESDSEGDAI
T2 sequence (P51170 1-649): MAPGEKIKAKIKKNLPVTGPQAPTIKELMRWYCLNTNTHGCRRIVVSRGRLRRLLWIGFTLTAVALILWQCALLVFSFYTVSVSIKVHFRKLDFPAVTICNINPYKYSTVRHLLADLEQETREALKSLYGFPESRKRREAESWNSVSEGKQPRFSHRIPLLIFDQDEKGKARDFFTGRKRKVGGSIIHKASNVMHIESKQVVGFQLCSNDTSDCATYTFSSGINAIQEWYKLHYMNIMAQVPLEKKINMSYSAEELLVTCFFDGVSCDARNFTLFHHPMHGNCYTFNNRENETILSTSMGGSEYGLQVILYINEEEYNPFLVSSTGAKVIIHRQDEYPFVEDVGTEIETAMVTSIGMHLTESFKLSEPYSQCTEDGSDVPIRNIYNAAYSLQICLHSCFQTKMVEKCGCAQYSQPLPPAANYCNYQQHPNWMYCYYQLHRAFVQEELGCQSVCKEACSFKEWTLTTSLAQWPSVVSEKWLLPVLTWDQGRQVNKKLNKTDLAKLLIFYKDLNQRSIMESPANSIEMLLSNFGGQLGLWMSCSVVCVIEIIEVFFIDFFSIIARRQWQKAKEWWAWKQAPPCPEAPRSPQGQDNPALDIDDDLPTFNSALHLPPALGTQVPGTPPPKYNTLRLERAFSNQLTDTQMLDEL

[4] = system: Sprague Dawley rats; conditions: 25 mg/kg acetazolamide IV then 1.5 mg/kg compound IP, n = 8
[5] = system: panel of mammalian cell lines; conditions: concentrations up to 100 μM
[6] = molecular target: T1, uPA; conditions: read-out: uPA Ki; value taken from earlier paper; cited from earlier work

uPA potency relative to amiloride (in words) [1] | fold increase in uPA activity relative to amiloride ([1]; from Ki values) [fold] | SMILES | further results
only a modest increase in activity |  | COc1ncc(-c2nc(C(=O)NC(=N)N)c(N)nc2N)c(OC)n1 [Compound 8] | 
 | 3.3 | N=C(N)NC(=O)c1nc(-c2ccco2)c(N)nc1N [Compound 11] | 
 | 1.7 | N=C(N)NC(=O)c1nc(-c2cc3ccccc3s2)c(N)nc1N [Compound 14] | 
slight increase |  | N=C(N)NC(=O)c1nc(-c2ccc3c(c2)CCO3)c(N)nc1N [Compound 24] | 
did not improve potency |  | CSc1ccc(-c2nc(C(=O)NC(=N)N)c(N)nc2N)cc1 [Compound 4] | 
 |  | COc1ncc(-c2nc(C(=O)NC(=N)N)c(N)nc2N)cn1 [Compound 7] | inhibition of serine hydrolases in EnPlex assay (in words) [2]: High uPA selectivity; ENaC activity (in words) [3]: Complete loss of ENaC activity; effect on Na+/K+ excretion / solute concentrations (in words) [4]: no significant effect; effect on diuresis (in words) [4]: no significant effect; cytotoxicity across the cell line panel (in words) [5]: much less toxic
did not improve potency |  | N=C(N)NC(=O)c1nc(-c2ccccc2)c(N)nc1N [Compound 3] | 
did not improve potency |  | N=C(N)NC(=O)c1nc(-c2ccc(C(F)(F)F)cc2)c(N)nc1N [Compound 5] | 
 |  | N=C(N)NC(=O)c1nc(-c2cc3cc(Br)ccc3o2)c(N)nc1N [Compound 19] | fold decrease in uPA activity relative to amiloride ([1]; from Ki values): 1.5 fold; fold loss of uPA activity relative to 15 ([1]; from Ki values): ~ 12 fold
 |  | COc1ncc(-c2nc(C(=O)NC(=N)N)c(N)nc2N2CCCCCC2)c(OC)n1 [6-(2,4-dimethoxypyrimidin-5-yl)-5-(N,N-hexamethylene) amiloride] | Ki [6]: 42 nM
 | 2 | COc1ccc(-c2nc(C(=O)NC(=N)N)c(N)nc2N)c(OC)n1 [Compound 9] | 
 | 2 | N=C(N)NC(=O)c1nc(-c2cccs2)c(N)nc1N [Compound 10] | 
 |  | N=C(N)NC(=O)c1nc(-c2ccc3occc3c2)c(N)nc1N [Compound 23] | uPA potency relative to 15 (in words) [1]: only a small decrease in potency
